Assay results: ChEMBL document CHEMBL4765295, “Synthesis, pharmacological profile and 2D-QSAR studies of curcumin-amino acid conjugates as potential drug candidates” (Eur J Med Chem, 2020)
Values joined by “and” are separate entries in the source; they are usually repeats but may differ in a detail not shown here. Equal values may be shown once.

Columns and labels:
Staphylococcus aureus = assay: Antibacterial activity against Staphylococcus aureus ATCC 25923 incubated for 18 hrs by agar dilution method; type: functional
Streptococcus pyogenes = assay: Antibacterial activity against Streptococcus pyogenes ATCC 19615 incubated for 18 hrs by agar dilution method; type: functional
MCF7 = assay: Antiproliferative activity against human MCF7 cells assessed as inhibition of cell growth after 72 hrs by MTT assay; type: functional, cell-based; conditions: MCF7, 72 h
Rattus norvegicus [1] = assay: Anti-inflammatory activity in Wistar rat assessed as inhibition of carrageenan-induced paw edema at 10 mg/kg, ip pretreated for 1 hr followed by carrageenan challenge and measured after 4 hr relative to control (reference value: 0.00 +/-0.4 %); type: functional; conditions: time 5 hrs
Rattus norvegicus [2] = assay: Anti-inflammatory activity in Wistar rat assessed as inhibition of carrageenan-induced paw edema at 10 mg/kg, ip pretreated for 1 hr followed by carrageenan challenge and measured after 3 hr relative to control (reference value: 0.00 +/-0.1 %); type: functional; conditions: time 4 hrs
Peritoneal macrophage [3] = assay: Antiinflammatory activity in […] mouse Peritoneal macrophages assessed as reduction in LPS-induced NO production by measuring reduction in stimulation index at 10 uM preincubated for 1 hr followed by LPS stimulation measured after 24 hrs by Griess method (reference value: 27.31 +/- 2.56 uM); type: functional; conditions: time 25 hrs
Rattus norvegicus [4] = assay: Antiinflammatory activity in Wistar rat model of carrageenan-induced paw edema assessed as reduction in thickness of paw edema at 10 mg/kg, ip pretreated for 1 hr followed by carrageenan challenge and measured after 3 hrs (reference value: 1.79 +/-0.07 mm); type: functional; conditions: time 4 hrs
A549 = assay: Antiproliferative activity against human A549 cells assessed as inhibition of cell growth after 72 hrs by MTT assay; type: functional, cell-based; conditions: A549, 72 h
Splenocyte [5] = assay: Immunomodulatory activity in Swiss albino mouse splenocytes assessed as cell viability at 10 uM by measuring stimulation index incubated for 72 hrs in presence of mitogenic stimulus phytohaemagglutinin by MTT assay (reference value: 1.00 +/- 0.24); type: functional
Splenocyte [6] = assay: Immunomodulatory activity in Swiss albino mouse splenocytes assessed as cell viability at 10 uM by measuring inhibition of stimulation index incubated for 72 hrs in presence of mitogenic stimulus phytohaemagglutinin by MTT assay relative to indomethacin; type: functional; conditions: read-out: Activity
Rattus norvegicus [7] = assay: Anti-inflammatory activity in Wistar rat assessed as inhibition of carrageenan-induced paw edema at 10 mg/kg, ip pretreated for 1 hr followed by carrageenan challenge and measured after 2 hr relative to control (reference value: 0.00 +/-0.03 %); type: functional; conditions: time 3 hrs
Rattus norvegicus [8] = assay: Antiinflammatory activity in Wistar rat model of carrageenan-induced paw edema assessed as reduction in thickness of paw edema at 10 mg/kg, ip pretreated for 1 hr followed by carrageenan challenge and measured after 24 hrs (reference value: 0.83 +/-0.08 mm); type: functional; conditions: time 25 hrs
Rattus norvegicus [9] = assay: Anti-inflammatory activity in Wistar rat assessed as inhibition of carrageenan-induced paw edema at 10 mg/kg, ip pretreated for 1 hr followed by carrageenan challenge and measured after 24 hr relative to control (reference value: 0.00 +/-0.3 %); type: functional; conditions: time 25 hrs
Rattus norvegicus [10] = assay: Anti-inflammatory activity in Wistar rat assessed as inhibition of carrageenan-induced paw edema at 10 mg/kg, ip pretreated for 1 hr followed by carrageenan challenge and measured after 4 hr relative to indomethacin; type: functional; conditions: time 5 hrs
Rattus norvegicus [11] = assay: Antiinflammatory activity in Wistar rat model of carrageenan-induced paw edema assessed as reduction in thickness of paw edema at 10 mg/kg, ip pretreated for 1 hr followed by carrageenan challenge and measured after 2 hrs (reference value: 2.06 +/-0.09 mm); type: functional; conditions: time 3 hrs
Rattus norvegicus [12] = assay: Antiinflammatory activity in Wistar rat model of carrageenan-induced paw edema assessed as reduction in thickness of paw edema at 10 mg/kg, ip pretreated for 1 hr followed by carrageenan challenge and measured after 1 hr (reference value: 2.41 +/-0.05 mm); type: functional; conditions: time 1 hr after carrageenan
PC-3 = assay: Antiproliferative activity against human PC3 cells assessed as inhibition of cell growth after 72 hrs by MTT assay; type: functional, cell-based; conditions: PC-3, 72 h
Pseudomonas aeruginosa = assay: Antibacterial activity against Pseudomonas aeruginosa ATCC 27853 incubated for 18 hrs by agar dilution assay; type: functional
Salmonella typhimurium = assay: Antibacterial activity against Salmonella typhimurium ATCC 19430 incubated for 18 hrs by agar dilution assay; type: functional, Salmonella enterica subsp. enterica serovar Typhimurium; conditions: Salmonella enterica
Peritoneal macrophage [13] = assay: Antiinflammatory activity in […] mouse Peritoneal macrophages assessed as inhibition of LPS-induced NO production at 10 uM preincubated for 1 hr followed by LPS stimulation measured after 24 hrs by Griess method relative to control (reference value: 0.0 %); type: functional; set-up: scale not given: the % may be the effect or the level left; conditions: time 25 hrs
Rattus norvegicus [14] = assay: Anti-inflammatory activity in Wistar rat assessed as inhibition of carrageenan-induced paw edema at 10 mg/kg, ip pretreated for 1 hr followed by carrageenan challenge and measured after 1 hr relative to control (reference value: 0.00 +/-0.02 %); type: functional; conditions: time 2 hrs
Rattus norvegicus [15] = assay: Antiinflammatory activity in Wistar rat model of carrageenan-induced paw edema assessed as reduction in thickness of paw edema at 10 mg/kg, ip pretreated for 1 hr followed by carrageenan challenge and measured after 4 hrs (reference value: 1.40 +/-0.10 mm); type: functional; conditions: time 5 hrs
Candida albicans = assay: Antifungal activity against Candida albicans incubated for 18 to 24 hrs by CLSI method; type: functional; conditions: time 18-24 hrs

Compound	MIC (Staphylococcus aureus)	MIC (Streptococcus pyogenes)	IC50 (MCF7) [µM]	inhibition in vivo at 10 mg/kg (Rattus norvegicus [1]) [%]	inhibition in vivo at 10 mg/kg (Rattus norvegicus [2]) [%]	Activity (Peritoneal macrophage [3]) [µM]	Activity (Rattus norvegicus [4]) [mm]	IC50 (A549) [µM]	Activity_index (Splenocyte [5])	viability at 10 µM (Splenocyte [6]) [%]	inhibition in vivo at 10 mg/kg (Rattus norvegicus [7]) [%]	Activity (Rattus norvegicus [8]) [mm]	inhibition in vivo at 10 mg/kg (Rattus norvegicus [9]) [%]	inhibition in vivo at 10 mg/kg (Rattus norvegicus [10]) [%]	Activity (Rattus norvegicus [11]) [mm]	Activity (Rattus norvegicus [12]) [mm]	IC50 (PC-3) [µM]	MIC (Pseudomonas aeruginosa)	MIC (Salmonella typhimurium)	Activity (Peritoneal macrophage [13]) [%]	further results
COc1cc(/C=C/C(=O)/C=C(O)/C=C/c2ccc(OC(=O)C(C)N)c(OC)c2)ccc1OC(=O)C(C)N.Cl.Cl (stereo not given)	0.125 µg/mL and 0.214 µM	0.25 µg/mL and 0.428 µM	9.79	84	55	19.75	0.81	22.2	1.91	63.2	54	0.6	28	97	0.94	1.11	21.7	0.5 µg/mL and 0.857 µM	0.25 µg/mL and 0.428 µM	27.69	inhibition in vivo at 10 mg/kg (Rattus norvegicus [14]): 54%; Activity (Rattus norvegicus [15]): 0.22 mm; MIC (Candida albicans): 1 µg/mL and 1.71 µM
COc1cc(/C=C/C(=O)/C=C(O)/C=C/c2ccc(OC(=O)[C@@H](N)C(C)C)c(OC)c2)ccc1OC(=O)[C@@H](N)C(C)C.Cl.Cl	0.25 µg/mL and 0.391 µM	0.125 µg/mL and 0.195 µM	10.4	46	48	20.65	0.93	20.4	2.05	59	50	0.71	14	53	1.4	0.97	34.6	0.25 µg/mL and 0.391 µM	0.125 µg/mL and 0.195 µM	24.37	inhibition in vivo at 10 mg/kg (Rattus norvegicus [14]): 60%; Activity (Rattus norvegicus [15]): 0.75 mm; MIC (Candida albicans): 0.125 µg/mL and 0.195 µM
COc1cc(/C=C/C(=O)/C=C(O)/C=C/c2ccc(OC(=O)[C@H](C)N)c(OC)c2)ccc1OC(=O)[C@H](C)N.Cl.Cl	0.5 µg/mL and 0.857 µM	0.5 µg/mL and 0.857 µM	10.7	66	53	14.68	0.85	21.7	1.14	106	42	0.7	16	76	1.19	1.51	31.5	0.25 µg/mL and 0.428 µM	0.5 µg/mL and 0.857 µM	46.24	inhibition in vivo at 10 mg/kg (Rattus norvegicus [14]): 37%; Activity (Rattus norvegicus [15]): 0.47 mm; MIC (Candida albicans): 0.5 µg/mL and 0.857 µM
COc1cc(/C=C/C(=O)/C=C(O)/C=C/c2ccc(OC(=O)[C@@H](N)Cc3ccccc3)c(OC)c2)ccc1OC(=O)[C@@H](N)Cc1ccccc1.Cl.Cl	0.25 µg/mL and 0.34 µM	0.5 µg/mL and 0.68 µM	11.5	84	63	16.46	0.66	33.5	1.41	85.6	51	0.66	20	97	1.01	1.29	74.4	0.5 µg/mL and 0.68 µM	0.125 µg/mL and 0.17 µM	39.74	inhibition in vivo at 10 mg/kg (Rattus norvegicus [14]): 46%; Activity (Rattus norvegicus [15]): 0.22 mm; MIC (Candida albicans): 0.5 µg/mL and 0.68 µM
COc1cc(/C=C/C(=O)/C=C(O)/C=C/c2ccc(OC(=O)[C@@H](N)CCC(N)=O)c(OC)c2)ccc1OC(=O)[C@@H](N)CCC(N)=O.Cl.Cl	0.25 µg/mL and 0.358 µM	0.5 µg/mL and 0.717 µM	9.15	42	43	21.75	1.02	21.1	2.22	54.5	45	0.57	31	48	1.14	1.29	34.4	0.5 µg/mL and 0.717 µM	0.125 µg/mL and 0.179 µM	20.35	inhibition in vivo at 10 mg/kg (Rattus norvegicus [14]): 46%; Activity (Rattus norvegicus [15]): 0.81 mm; MIC (Candida albicans): 0.125 µg/mL and 0.179 µM
